Source: US12378250B2, “Tricyclic compound as IRAK4 inhibitor” (KOREA RESEARCH INSTITUTE OF CHEMICAL TECHNOLOGY, priority 2018, dated 2025)

Molecular target: T1, IRAK4 enzyme (Homo sapiens, UniProt Q9NWZ3)
T1 sequence (Q9NWZ3 1-460): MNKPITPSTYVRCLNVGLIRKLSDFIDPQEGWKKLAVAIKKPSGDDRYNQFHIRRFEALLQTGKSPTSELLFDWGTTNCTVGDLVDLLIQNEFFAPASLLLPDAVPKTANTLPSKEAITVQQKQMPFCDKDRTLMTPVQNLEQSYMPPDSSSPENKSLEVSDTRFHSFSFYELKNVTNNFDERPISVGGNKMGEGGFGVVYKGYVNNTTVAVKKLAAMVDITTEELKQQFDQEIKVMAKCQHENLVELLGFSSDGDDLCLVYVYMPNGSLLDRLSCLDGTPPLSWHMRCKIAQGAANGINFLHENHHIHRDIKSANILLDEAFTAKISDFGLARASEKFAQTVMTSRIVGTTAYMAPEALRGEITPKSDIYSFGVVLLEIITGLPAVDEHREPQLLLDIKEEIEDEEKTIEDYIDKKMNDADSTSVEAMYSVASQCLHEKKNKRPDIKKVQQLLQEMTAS
Experiment: IRAK4 enzyme inhibition degree (bead-based kinase assay, peptide substrate BMKC-2, 100 μM ATP)
Type: biochemical
Conditions: for inhibition at 1 µM: compound 1 μM
Protocol: 2.5 μl of a compound diluted to 4-fold of a final concentration was put into a 384-well white plate (low volume). 2.5 μl of 0.4 ng/μl IRAK4 enzyme was added thereto, and the resulting mixture was totally reacted for 10 minutes. 5 μl of a mixed liquid of a 6 μM peptide substrate (BMKC-2) and 100 μM ATP was added thereto, the resulting mixture was reacted at room temperature for 60 minutes, then 2.5 μl of 10 mM EDTA was added thereto, and the resulting mixture was reacted again for 10 minutes. 40 nM anti-phospho Thr antibody was aliquoted to 2.5 μl each, 5 μl of a mixed solution of a 160 μl/ml acceptor bead and a donor bead was added thereto, and then the resulting mixture was reacted at room temperature for 60 minutes. Fluorescence signals were measured using a bead experimental apparatus (Fusion alpha-FP Microplate Reader, Perkin Elmer Inc.).
From the detected signal, an activity inhibition rate [% inhibition degree=(the average value of a compound−the average value of a negative control)/(the average value of a positive control−the average value of a negative control)×100] was calculated, and is shown in [Table 1]. Further, a % inhibition degree of the compound at each concentration was obtained, and then a 50% inhibition concentration (IC50 value) was analyzed by a non-linear regression analysis.

inhibition at 1 µM	IC50	Structure (SMILES)
9%	–	CCOC(=O)c1ccc2[nH]c3ncnc(Nc4ccc(OC)cc4)c3c2c1 [Compound 5bc, ethyl 4-((4-methoxyphenyl)amino)-9H-pyrimido[4,5-b]indole-6-carboxylate]
< 1%	–	COC(=O)c1ccc2c(c1)[nH]c1ncnc(Nc3ccc(N4CCOCC4)cc3)c12 [Compound 5db, methyl 4-((4-morpholinophenyl)amino)-9H-pyrimido[4,5-b]indole-7-carboxylate]
74%	63 nM	N#Cc1cncc(-c2ccc3[nH]c4ncnc(N[C@H]5CC[C@H](N6CCOCC6)CC5)c4c3c2)c1 [Compound 6aao, 5-(4-((trans-4-morpholinocyclohexyl)amino)-9H-pyrimido[4,5-b]indol-6-yl) nicotinonitrile]
56%	780 nM	N#Cc1cc(F)cc(-c2ccc3[nH]c4ncnc(N[C@H]5CC[C@H](N6CCOCC6)CC5)c4c3c2)c1 [Compound 6aap, 3-fluoro-5-(4-((trans-4-morpholinocyclohexyl)amino)-9H-pyrimido[4,5-b]indol-6-yl) benzonitrile]
59%	565 nM	CC(C)(C)OC(=O)N1CCC(n2cc(-c3ccc4[nH]c5ncnc(N[C@H]6CC[C@H](N7CCOCC7)CC6)c5c4c3)cn2)CC1 [Compound 6aaq, tert-butyl 4-(4-(4-((trans-4-morpholinocyclohexyl)amino)-9H-pyrimido[4,5-b]indol-6-yl)-1H-pyrazol-1-yl)piperidine-1-carboxylate]
78%	137 nM	c1nc(N[C@H]2CC[C@H](N3CCOCC3)CC2)c2c(n1)[nH]c1ccc(-c3cnn(C4CCNCC4)c3)cc12 [Compound 6aar, N-(trans-4-morpholinocyclohexyl)-6-(1-(piperidin-4-yl)-1H-pyrazol-4-yl)-9H-pyrimido[4,5-b]indole-4-amine]
79%	50 nM	CS(=O)(=O)N1CCC(n2cc(-c3ccc4[nH]c5ncnc(N[C@H]6CC[C@H](N7CCOCC7)CC6)c5c4c3)cn2)CC1 [Compound 6aas, 6-(1-(1-(methylsulfonyl)piperidin-4-yl)-1H-pyrazol-4-yl)-N-(trans-4-morpholinocyclohexyl)-9H-pyrimido[4,5-b]indole-4-amine]
53%	861 nM	Cn1cc(-c2ccc3[nH]c4ncnc(NCCN5CCOCC5)c4c3c2)cn1 [Compound 6ada, 6-(1-methyl-1H-pyrazol-4-yl)-N-(2-morpholinoethyl)-9H-pyrimido[4,5-b]indole-4-amine]
34%	1530 nM	Cn1cc(-c2ccc3[nH]c4ncnc(NCCCN5CCOCC5)c4c3c2)cn1 [Compound 6aea, 6-(1-methyl-1H-pyrazol-4-yl)-N-(3-morpholinopropyl)-9H-pyrimido[4,5-b]indole-4-amine]
36%	1050 nM	Cn1cc(-c2ccc3[nH]c4ncnc(NCCN5CCN(C(=O)OC(C)(C)C)CC5)c4c3c2)cn1 [Compound 6afa, tert-butyl 4-(2-((6-(1-methyl-1H-pyrazol-4-yl)-9H-pyrimido[4,5-b]indol-4-yl)amino)ethyl)piperazine-1-carboxylate]
41%	1040 nM	Cn1cc(-c2ccc3[nH]c4ncnc(OCCN5CCOCC5)c4c3c2)cn1 [Compound 6aha, 4-(2-((6-(1-methyl-1H-pyrazol-4-yl)-9H-pyrimido[4,5-b]indol-4-yl)oxy)ethyl)morpholine]
70%	308 nM	c1nc(N[C@H]2CC[C@H](N3CCOCC3)CC2)c2c(n1)[nH]c1ccc(-c3nnc[nH]3)cc12 [Compound 6baa, N-(trans-4-morpholinocyclohexyl)-6-(4H-1,2,4-triazol-3-yl)-9H-pyrimido[4,5-b]indole-4-amine]
86%	210 nM	Cc1nnc(-c2ccc3[nH]c4ncnc(N[C@H]5CC[C@H](N6CCOCC6)CC5)c4c3c2)[nH]1 [Compound 6bab, 6-(5-methyl-4H-1,2,4-triazol-3-yl)-N-(trans-4-morpholinocyclohexyl)-9H-pyrimido[4,5-b]indole-4-amine]
60%	842 nM	Cn1cnnc1-c1ccc2[nH]c3ncnc(N[C@H]4CC[C@H](N5CCOCC5)CC4)c3c2c1 [Compound 6bac, 6-(4-methyl-4H-1,2,4-triazol-3-yl)-N-(trans-4-morpholinocyclohexyl)-9H-pyrimido[4,5-b]indole-4-amine]
52%	928 nM	c1nc(N[C@H]2CC[C@H](N3CCOCC3)CC2)c2c(n1)[nH]c1ccc(-c3nnc4n3CCC4)cc12 [Compound 6bad, 6-(6,7-dihydro-5H-pyrrolo[2,1-c][1,2,4]triazol-3-yl)-N-(trans-4-morpholinocyclohexyl)-9H-pyrimido[4,5-b]indole-4-amine]
94%	8 nM	Cc1nnc(-c2ccc3[nH]c4ncnc(N[C@H]5CC[C@H](N6CCOCC6)CC5)c4c3c2)o1 [Compound 6bae, 6-(5-methyl-1,3,4-oxadiazol-2-yl)-N-(trans-4-morpholinocyclohexyl)-9H-pyrimido[4,5-b]indole-4-amine]
70%	509 nM	O=c1[nH]nc(-c2ccc3[nH]c4ncnc(N[C@H]5CC[C@H](N6CCOCC6)CC5)c4c3c2)[nH]1 [Compound 6baf, 5-(4-((trans-4-morpholinocyclohexyl)amino)-9H-pyrimido[4,5-b]indol-6-yl)-2,4-dihydro-3H-1,2,4-triazole-3-one]
10%	–	COC(=O)c1ccc2c(c1)[nH]c1nc(-c3cccc([N+](=O)[O-])c3)nc(N[C@H]3CC[C@H](N4CCOCC4)CC3)c12 [Compound 11b, methyl 4-((trans-4-morpholinocyclohexyl)amino)-2-(3-nitrophenyl)-9H-pyrimido[4,5-b]indole-7-carboxylate]
91%	79 nM	Fc1cncc(-c2ccc3[nH]c4ncnc(N[C@H]5CC[C@H](N6CCOCC6)CC5)c4c3n2)c1 [Compound 23a, 6-(5-fluoropyridin-3-yl)-N-(trans-4-morpholinocyclohexyl)-9H-pyrido[2′,3′:4,5]pyrrolo[2,3-d]pyrimidin-4-amine]
